What all share (assay): UV-vis Soret titration (A404)
The test system of test [1] is CatG4 (DNA, G4) TGGGTAGGGCGGGTTGGGAAA
To be noted: 20 mM K+; 40 mM HEPES pH 8.0, 1% DMF, 0.05% Triton X-100, 20°C; heme 0.5 µM.

Test [2] relates to d(G4C2)4 (DNA, G4) GGGGCCGGGGCCGGGGCCGGGGC
To be noted: 20 mM K+; 40 mM HEPES pH 8.0, 1% DMF, 0.05% Triton X-100, 20°C; heme 0.5 µM; weaker than r(G4C2)4.

For test [3], the system named is r(C4G2)4 (RNA, other) GGCCCCGGCCCCGGCCCCGGCCCC
To be noted: 20 mM K+; 40 mM HEPES pH 8.0, 1% DMF, 0.05% Triton X-100, 20°C; heme 0.5 µM; up to 20 µM RNA.

For test [4], the system named is r(G4C2)4 (RNA, G4) GGGGCCGGGGCCGGGGCCGGGGC
To be noted: 20 mM K+; 40 mM HEPES pH 8.0, 1% DMF, 0.05% Triton X-100, 20°C; heme 0.5 µM; text also ~3 µM.

For orientation: Kd means the equilibrium constant for the complex coming apart. A lower Kd goes with a tighter complex. What is called KD is a measure of binding affinity in units of concentration.

Each structure is given as a SMILES string. Some results are limits rather than exact numbers.

The compound `C=CC1=C(C)C2=Cc3c(C=C)c(C)c4[n]3[Fe]([Cl])[n]3c(c(C)c(CCC(=O)O)c3=CC3=NC(=C4)C(C)=C3CCC(=O)O)=CC1=N2` registered a Kd in test [1] of less than 0.5 µM. In addition, the values for the binding entry in test [2] and in test [3] were “yes” and “no”, respectively. The dissociation constant KD in test [4] came out at 3.1 µM.
